Assay results reported in PMC10408569, “Recruitment of hexahydroquinoline as anticancer scaffold targeting inhibition of wild and mutants EGFR (EGFR^WT, EGFR^T790M, and EGFR^L858R)” (Journal of Enzyme Inhibition and Medicinal Chemistry, 2023).

Columns and labels:
MDA-MB-468 = experiment: NCI-60 anticancer screening (SRB); assay type: cell-based; conditions: Homo sapiens; MDA-MB-468, breast cancer; one dose 10 μM; read-out: Growth Inhibition Percentage (GI %)
OVCAR-8 = experiment: NCI-60 anticancer screening (SRB); assay type: cell-based; conditions: Homo sapiens; OVCAR-8, ovarian cancer; one dose 10 μM; read-out: Growth Inhibition Percentage (GI %)
SK-OV-3 = experiment: NCI-60 anticancer screening (SRB); assay type: cell-based; conditions: Homo sapiens; SK-OV-3, ovarian cancer; one dose 10 μM; read-out: Growth Inhibition Percentage (GI %)
MALME-3M = experiment: NCI-60 anticancer screening (SRB); assay type: cell-based; conditions: Homo sapiens, melanoma, one dose 10 μM, read-out: Growth Inhibition Percentage (GI %)
COLO 205 = experiment: NCI-60 anticancer screening (SRB); assay type: cell-based; conditions: Homo sapiens; COLO 205, colon cancer; one dose 10 μM; read-out: Growth Inhibition Percentage (GI %)
HCT-116 = experiment: NCI-60 anticancer screening (SRB); assay type: cell-based; conditions: Homo sapiens; HCT-116, colon cancer; one dose 10 μM; read-out: Growth Inhibition Percentage (GI %)
PC-3 = experiment: NCI-60 anticancer screening (SRB); assay type: cell-based; conditions: Homo sapiens; PC-3, prostate cancer; one dose 10 μM; read-out: Growth Inhibition Percentage (GI %)
IGROV1 = experiment: NCI-60 anticancer screening (SRB); assay type: cell-based; conditions: Homo sapiens, IGROV-1; IGROV1, ovarian cancer; one dose 10 μM; read-out: Growth Inhibition Percentage (GI %)
OVCAR-4 = experiment: NCI-60 anticancer screening (SRB); assay type: cell-based; conditions: Homo sapiens; OVCAR-4, ovarian cancer; one dose 10 μM; read-out: Growth Inhibition Percentage (GI %)
OVCAR-3 = experiment: NCI-60 anticancer screening (SRB); assay type: cell-based; conditions: Homo sapiens; OVCAR-3, ovarian cancer; one dose 10 μM; read-out: Growth Inhibition Percentage (GI %)
ACHN = experiment: NCI-60 anticancer screening (SRB); assay type: cell-based; conditions: Homo sapiens, renal cancer, one dose 10 μM, read-out: Growth Inhibition Percentage (GI %)
SK-MEL-2 = experiment: NCI-60 anticancer screening (SRB); assay type: cell-based; conditions: Homo sapiens; SK-MEL-2, melanoma; one dose 10 μM; read-out: Growth Inhibition Percentage (GI %)
CCRF-CEM = experiment: NCI-60 anticancer screening (SRB); assay type: cell-based; conditions: Homo sapiens, leukemia, one dose 10 μM, read-out: Growth Inhibition Percentage (GI %)
A498 = experiment: NCI-60 anticancer screening (SRB); assay type: cell-based; conditions: Homo sapiens; A498, renal cancer; one dose 10 μM; read-out: Growth Inhibition Percentage (GI %)
MOLT-4 = experiment: NCI-60 anticancer screening (SRB); assay type: cell-based; conditions: Homo sapiens; MOLT-4, leukemia; one dose 10 μM; read-out: Growth Inhibition Percentage (GI %)
U251 = experiment: NCI-60 anticancer screening (SRB); assay type: cell-based; conditions: Homo sapiens, U-251; U251, CNS cancer; one dose 10 μM; read-out: Growth Inhibition Percentage (GI %)
LOX IMVI = experiment: NCI-60 anticancer screening (SRB); assay type: cell-based; conditions: Homo sapiens, melanoma, one dose 10 μM, read-out: Growth Inhibition Percentage (GI %)
SW-620 = experiment: NCI-60 anticancer screening (SRB); assay type: cell-based; conditions: Homo sapiens; SW-620, colon cancer; one dose 10 μM; read-out: Growth Inhibition Percentage (GI %)
K-562 = experiment: NCI-60 anticancer screening (SRB); assay type: cell-based; conditions: Homo sapiens, K562; K-562, leukemia; one dose 10 μM; read-out: Growth Inhibition Percentage (GI %)
UO-31 = experiment: NCI-60 anticancer screening (SRB); assay type: cell-based; conditions: Homo sapiens; UO-31, renal cancer; one dose 10 μM; read-out: Growth Inhibition Percentage (GI %)
SR = experiment: NCI-60 anticancer screening (SRB); assay type: cell-based; conditions: Homo sapiens, leukemia, one dose 10 μM, read-out: Growth Inhibition Percentage (GI %)
HS 578T = experiment: NCI-60 anticancer screening (SRB); assay type: cell-based; conditions: Homo sapiens; HS 578T, breast cancer; one dose 10 μM; read-out: Growth Inhibition Percentage (GI %)
OVCAR-5 = experiment: NCI-60 anticancer screening (SRB); assay type: cell-based; conditions: Homo sapiens; OVCAR-5, ovarian cancer; one dose 10 μM; read-out: Growth Inhibition Percentage (GI %)
MCF7 = experiment: NCI-60 anticancer screening (SRB); assay type: cell-based; conditions: Homo sapiens; MCF7, breast cancer; one dose 10 μM; read-out: Growth Inhibition Percentage (GI %)
UACC-257 = experiment: NCI-60 anticancer screening (SRB); assay type: cell-based; conditions: Homo sapiens; UACC-257, melanoma; one dose 10 μM; read-out: Growth Inhibition Percentage (GI %)
HOP-92 = experiment: NCI-60 anticancer screening (SRB); assay type: cell-based; conditions: Homo sapiens; HOP-92, NSC lung cancer; one dose 10 μM; read-out: Growth Inhibition Percentage (GI %)
NCI-H226 = experiment: NCI-60 anticancer screening (SRB); assay type: cell-based; conditions: Homo sapiens; NCI-H226, NSC lung cancer; one dose 10 μM; read-out: Growth Inhibition Percentage (GI %)
BT-549 = experiment: NCI-60 anticancer screening (SRB); assay type: cell-based; conditions: Homo sapiens; BT-549, breast cancer; one dose 10 μM; read-out: Growth Inhibition Percentage (GI %)

SMILES	inhibition at 10 µM (MDA-MB-468)	inhibition at 10 µM (OVCAR-8)	inhibition at 10 µM (SK-OV-3)	inhibition at 10 µM (MALME-3M)	inhibition at 10 µM (COLO 205)	inhibition at 10 µM (HCT-116)	inhibition at 10 µM (PC-3)	inhibition at 10 µM (IGROV1)	melting point	inhibition at 10 µM (OVCAR-4)	inhibition at 10 µM (OVCAR-3)	inhibition at 10 µM (ACHN)	inhibition at 10 µM (SK-MEL-2)	inhibition at 10 µM (CCRF-CEM)	inhibition at 10 µM (A498)	inhibition at 10 µM (MOLT-4)	inhibition at 10 µM (U251)	inhibition at 10 µM (LOX IMVI)	inhibition at 10 µM (SW-620)	inhibition at 10 µM (K-562)	further results
CCOC(=O)C1=C(N)N(c2ccc(C)cc2)C2=C(C(=O)CC(C)(C)C2)C1c1cccnc1 (racemic) [12e, (±)-Ethyl 2-amino-7,7-dimethyl-1–(4-methylphenyl)-5-oxo-1-phenyl-4-(pyrdin-3-yl)-1,4,5,6,7,8-hexahydroquinoline-3-carboxylate]	< 10%	< 10%	< 10%	< 10%	< 10%	< 10%	12%	< 10%	261 to 263 °C	< 10%	< 10%	< 10%	< 10%	< 10%	< 10%	< 10%	< 10%	< 10%	< 10%	< 10%	inhibition at 10 µM (UO-31): 23%; inhibition at 10 µM (SR): < 10%; inhibition at 10 µM (HS 578T): < 10%; inhibition at 10 µM (OVCAR-5): < 10%; inhibition at 10 µM (MCF7): < 10%; inhibition at 10 µM (UACC-257): < 10%; inhibition at 10 µM (HOP-92): < 10%; inhibition at 10 µM (NCI-H226): < 10%; inhibition at 10 µM (BT-549): < 10%
CCOC(=O)C1=C(N)N(c2ccc(C)cc2)C2=C(C(=O)CC(C)(C)C2)C1c1ccccn1 (racemic) [12b, (±)-Ethyl 2-amino-7,7-dimethyl-1–(4-methylphenyl)-5-oxo-1-phenyl-4-(pyrdin-2-yl)-1,4,5,6,7,8-hexahydroquinoline-3-carboxylate]	82%	< 10%	< 10%	< 10%	< 10%	< 10%	< 10%	< 10%	196 to 198 °C	< 10%	< 10%	< 10%	< 10%	< 10%	< 10%	< 10%	< 10%	< 10%	< 10%	< 10%	inhibition at 10 µM (UO-31): 23%; inhibition at 10 µM (SR): < 10%; inhibition at 10 µM (HS 578T): < 10%; inhibition at 10 µM (OVCAR-5): < 10%; inhibition at 10 µM (MCF7): 12%; inhibition at 10 µM (UACC-257): < 10%; inhibition at 10 µM (HOP-92): < 10%; inhibition at 10 µM (NCI-H226): < 10%; inhibition at 10 µM (BT-549): 30%
CCOC(=O)C1=C(N)N(c2ccc(C)cc2)C2=C(C(=O)CC(C)(C)C2)C1c1ccc([N+](=O)[O-])cc1 (racemic) [8j, (±)-Ethyl 2-amino-7,7-dimethyl-1–(4-methylphenyl)-4–(4-nitrophenyl)-5-oxo-1,4,5,6,7,8-hexahydroquinoline-3-carboxylate]	< 10%	< 10%	< 10%	< 10%	< 10%	< 10%	< 10%	< 10%	270 to 272 °C	< 10%	< 10%	< 10%	< 10%	< 10%	< 10%	< 10%	< 10%	< 10%	< 10%	< 10%	inhibition at 10 µM (UO-31): < 10%; inhibition at 10 µM (SR): < 10%; inhibition at 10 µM (HS 578T): < 10%; inhibition at 10 µM (OVCAR-5): < 10%; inhibition at 10 µM (MCF7): < 10%; inhibition at 10 µM (UACC-257): < 10%; inhibition at 10 µM (HOP-92): < 10%; inhibition at 10 µM (NCI-H226): < 10%; inhibition at 10 µM (BT-549): < 10%
CCOC(=O)C1=C(N)N(c2ccccc2)C2=C(C(=O)CC(C)(C)C2)C1c1ccc(OC)cc1 (racemic) [8f, (±)-Ethyl2-amino-4–(4-methoxyphenyl)-7,7-dimethyl-5-oxo-1-phenyl-1,4,5,6,7,8-hexahydroquinoline-3-carboxylate]	< 10%	< 10%	< 10%	< 10%	< 10%	14%	18%	< 10%	169 to 171 °C	< 10%	< 10%	< 10%	16%	< 10%	< 10%	14%	< 10%	< 10%	< 10%	< 10%	inhibition at 10 µM (UO-31): < 10%; inhibition at 10 µM (SR): 18%; inhibition at 10 µM (HS 578T): 12%; inhibition at 10 µM (OVCAR-5): < 10%; inhibition at 10 µM (MCF7): 13%; inhibition at 10 µM (UACC-257): < 10%; inhibition at 10 µM (HOP-92): < 10%; inhibition at 10 µM (NCI-H226): 12%; inhibition at 10 µM (BT-549): < 10%
CCOC(=O)C1=C(N)N(c2ccc(Cl)cc2)C2=C(C(=O)CC(C)(C)C2)C1c1ccccn1 (racemic) [12c, (±)-Ethyl 2-amino-1–(4-chlorophenyl)-7,7-dimethyl-5-oxo-4-(pyridine-2-yl)-1,4,5,6,7,8-hexahydroquinoline-3-carboxylate]	< 10%	< 10%	< 10%	< 10%	< 10%	13%	19%	< 10%	256 to 258 °C	< 10%	< 10%	< 10%	< 10%	< 10%	< 10%	< 10%	< 10%	< 10%	< 10%	< 10%	inhibition at 10 µM (UO-31): 23%; inhibition at 10 µM (SR): < 10%; inhibition at 10 µM (HS 578T): < 10%; inhibition at 10 µM (OVCAR-5): < 10%; inhibition at 10 µM (MCF7): 11%; inhibition at 10 µM (UACC-257): < 10%; inhibition at 10 µM (HOP-92): < 10%; inhibition at 10 µM (NCI-H226): < 10%; inhibition at 10 µM (BT-549): < 10%
